The test deals with T1, FBXL10 (Homo sapiens, UniProt Q8NHM5).
T1 construct: purchased BPS Bioscience 50120
T1 sequence (Q8NHM5 1-650): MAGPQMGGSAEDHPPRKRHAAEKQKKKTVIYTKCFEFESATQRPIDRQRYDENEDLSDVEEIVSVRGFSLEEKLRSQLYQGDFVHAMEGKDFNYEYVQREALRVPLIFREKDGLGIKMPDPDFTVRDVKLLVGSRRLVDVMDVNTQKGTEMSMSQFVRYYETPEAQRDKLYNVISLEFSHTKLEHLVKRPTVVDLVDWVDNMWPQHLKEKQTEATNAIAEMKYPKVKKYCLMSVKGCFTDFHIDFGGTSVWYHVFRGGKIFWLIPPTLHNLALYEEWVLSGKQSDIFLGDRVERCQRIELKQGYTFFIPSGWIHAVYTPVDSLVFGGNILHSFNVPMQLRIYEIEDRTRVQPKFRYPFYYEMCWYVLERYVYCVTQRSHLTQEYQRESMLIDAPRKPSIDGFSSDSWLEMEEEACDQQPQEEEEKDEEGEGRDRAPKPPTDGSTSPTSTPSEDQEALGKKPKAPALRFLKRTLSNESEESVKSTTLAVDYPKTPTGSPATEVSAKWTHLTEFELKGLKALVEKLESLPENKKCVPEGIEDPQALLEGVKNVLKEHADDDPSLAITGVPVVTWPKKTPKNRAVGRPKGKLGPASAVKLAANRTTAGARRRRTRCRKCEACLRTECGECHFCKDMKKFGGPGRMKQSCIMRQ
Nature of the test: FBXL10 in vitro enzyme inhibition assay (AlphaScreen). Type of test: biochemical. The settings on record: Table 5. An excerpt: This assay determines the ability of a test compound to inhibit FBXL11, FBXL10, and PHF8 demethylase activity. Baculovirus expressed FBXL11 (GenBank Accession #NM_012308, AA1-1162) was purchased from BPS Bioscience (Cat#50102). Baculovirus expressed FBXL10 (GenBank Accession #NM_032590, AA 1-650) was purchased from BPS Bioscience (Cat #50120). Baculovirus expressed PHF8 (GenBank Accession NP_055922.1) was purchased from Active Motif (Cat#31435).
The ability of test compounds to inhibit the activity of FBXL10 was determined in 384-well plate format under the following reaction conditions: 0.3 nM FBXL10, 30 nM H3K36me2-biotin labeled peptide (Anaspec cat # 64442), 0.2 µM alpha-ketoglutaric acid in assay buffer of 50 mM HEPES, pH7.3, 0.005% Brij35, 0.5 mM TCEP, 0.2 mg/ml BSA, 50 µM sodium L-ascorbate, 5 µM ammonium iron(II) sulfate. Reaction product is determined quantitatively by AlphaScreen detection after the addition of detection reagents anti-H3K36me1 antibody, AlphaScreen® Streptavidin-coated Donor beads, and AlphaScreen® Protein A Acceptor beads in 50 mM HEPES, pH7.3, 10 mM NaCl, 0.005% Brij35, 5 mM EDTA, 2 mg/ml BSA to final 10 µg/ml beads.
The assay reaction was initiated by the following: 3 µl of the mixture of 90 nM H3K36me2-biotin labeled peptide and 0.6 µM alpha-ketoglutaric acid with 3 µl of 11-point serial diluted inhibitor in 3% DMSO are added to each well of 384 well Proxiplate (Perkin Elmer), followed by the addition of 3 µl of 0.9 nM FBXL10 to initiate the reaction. The reaction mixture is incubated at room temperature for 1 hour, and terminated by the addition of 3 µl of appropriate dilution of anti H3K36me1 antibody in 50 mM HEPES, pH7.3, 10 mM NaCl, 0.005% Brij35, 5 mM EDTA, 2 mg/ml BSA. Plates will then incubated at room temperature for 40 minutes, followed by addition of 3 µl of 50 µg/ml AlphaScreen® Streptavidin-coated Donor beads and AlphaScreen® Protein A Acceptor beads in 50 mM HEPES, pH7.3, 10 mM NaCl, 0.005% Brij35, 5 mM EDTA, 2 mg/ml BSA. Plates will then be read by EnVision Multilabel Reader in AlphaScreen mode after minimum 2 hour incubation at room temperature. The AlphaScreen signal for each well is used to determine inhibition constant (IC50).
On the technique in general: Bead proximity is the source of the signal in Alpha formats.
Regarding `Fc1ccc(CCn2cnc(-c3cc(-c4nn[nH]c4C(F)(F)F)ccn3)c2)cc1` [Example 77], the IC50 was not above 100 nM. The value for `Fc1cccc(CCn2cnc(-c3cc(-c4nn[nH]c4C(F)(F)F)ccn3)c2)c1` [Example 78, 2-{1-[2-(3-fluorophenyl)ethyl]-1H-imidazol-4-yl}-4-[5-(trifluoromethyl)-1H-1,2,3-triazol-4-yl]pyridine] was not above 100 nM. Consider `Fc1cccc(CCn2cnc(-c3cc(-c4nn[nH]c4C(F)(F)F)ccn3)c2)c1F` [Example 79, 2-{1-[2-(2,3-difluorophenyl)ethyl]-1H-imidazol-4-yl}-4-[5-(trifluoromethyl)-1H-1,2,3-triazol-4-yl]pyridine], for which the IC50 is not above 100 nM. With `Fc1cccc(Cl)c1CCn1cnc(-c2cc(-c3nn[nH]c3C(F)(F)F)ccn2)c1` [Example 80, 2-{1-[2-(2-chloro-6-fluorophenyl)ethyl]-1H-imidazol-4-yl}-4-[5-(trifluoromethyl)-1H-1,2,3-triazol-4-yl]pyridine], the IC50 is 100 to 1000 nM. The value for `Fc1cc(F)c(CCn2cnc(-c3cc(-c4nn[nH]c4C(F)(F)F)ccn3)c2)cc1F` [Example 81, 4-[5-(trifluoromethyl)-1H-1,2,3-triazol-4-yl]-2-{1-[2-(2,4,5-trifluorophenyl)ethyl]-1H-imidazol-4-yl}pyridine] was not above 100 nM. `Fc1cc(F)c(CCn2cnc(-c3cc(-c4nn[nH]c4C(F)(F)F)ccn3)c2)c(F)c1` [Example 82, 4-[5-(trifluoromethyl)-1H-1,2,3-triazol-4-yl]-2-{1-[2-(2,4,6-trifluorophenyl)ethyl]-1H-imidazol-4-yl}pyridine] registered an IC50 not above 100 nM.

`FC(F)(F)c1[nH]nnc1-c1ccnc(-c2cn(CC3CCc4ccccc43)cn2)c1` (stereo not drawn) [Example 83, 2-{1-[(2,3-dihydro-1H-inden-1-yl)methyl]-1H-imidazol-4-yl}-4-[5-(trifluoromethyl)-1H-1,2,3-triazol-4-yl]pyridine] came in with an IC50 of 100 to 1000 nM. The compound `Fc1ccccc1CCn1cnc(-c2cc(-c3nn[nH]c3C(F)(F)F)ccn2)c1` [Example 84, 2-{1-[2-(2-fluorophenyl)ethyl]-1H-imidazol-4-yl}-4-[5-(trifluoromethyl)-1H-1,2,3-triazol-4-yl]pyridine] came in with a 50% inhibitory concentration (IC50) not above 100 nM. As to `Fc1ccc2c(c1)C(n1cnc(-c3cc(-c4nn[nH]c4C(F)(F)F)ccn3)c1)CC2` (stereo not drawn) [Example 85, 2-[1-(6-fluoro-2,3-dihydro-1H-inden-1-yl)-1H-imidazol-4-yl]-4-[5-(trifluoromethyl)-1H-1,2,3-triazol-4-yl]pyridine], the IC50 is not above 100 nM. `Fc1ccc(CCn2cnc(-c3cc(-c4nn[nH]c4C(F)(F)F)ccn3)c2)c(F)c1` [Example 86, 2-{1-[2-(2,4-difluorophenyl)ethyl]-1H-imidazol-4-yl}-4-[5-(trifluoromethyl)-1H-1,2,3-triazol-4-yl]pyridine]: the IC50 is not above 100 nM. In the case of `Fc1cccc(F)c1CCn1cnc(-c2cc(-c3nn[nH]c3C(F)(F)F)ccn2)c1` [Example 87, 2-{1-[2-(2,6-difluorophenyl)ethyl]-1H-imidazol-4-yl}-4-[5-(trifluoromethyl)-1H-1,2,3-triazol-4-yl]pyridine], the half-inhibitory concentration (IC50) is not above 100 nM. The value for `Fc1ccc(F)c(CCn2cnc(-c3cc(-c4nn[nH]c4C(F)(F)F)ccn3)c2)c1` [Example 88, 2-{1-[2-(2,5-difluorophenyl)ethyl]-1H-imidazol-4-yl}-4-[5-(trifluoromethyl)-1H-1,2,3-triazol-4-yl]pyridine] was not above 100 nM. With `O=C(c1ccccc1)N1CCC[C@@H](n2cnc(-c3cc(-c4nn[nH]c4C(F)(F)F)ccn3)c2)C1` [Example 89, 2-{1-[(3R)-1-benzoylpiperidin-3-yl]-1H-imidazol-4-yl}-4-[5-(trifluoromethyl)-1H-1,2,3-triazol-4-yl]pyridine] the figure was not above 100 nM; with `O=C(c1ccccc1)N1CCC[C@H](n2cnc(-c3cc(-c4nn[nH]c4C(F)(F)F)ccn3)c2)C1` [Example 90, 2-{1-[(3S)-1-benzoylpiperidin-3-yl]-1H-imidazol-4-yl}-4-[5-(trifluoromethyl)-1H-1,2,3-triazol-4-yl]pyridine], not above 100 nM; with `Cc1ccc(CCn2cnc(-c3cc(-c4nn[nH]c4C(F)(F)F)ccn3)c2)cc1` [Example 91, 2-{1-[2-(4-methylphenyl)ethyl]-1H-imidazol-4-yl}-4-[5-(trifluoromethyl)-1H-1,2,3-triazol-4-yl]pyridine], not above 100 nM. Compound `FC(F)(F)c1[nH]nnc1-c1ccnc(-c2cn(CCc3ccc(Cl)cc3)cn2)c1` [Example 92, 2-{1-[2-(4-chlorophenyl)ethyl]-1H-imidazol-4-yl}-4-[5-(trifluoromethyl)-1H-1,2,3-triazol-4-yl]pyridine] registered an IC50 not above 100 nM. As to `COc1ccc(CCn2cnc(-c3cc(-c4nn[nH]c4C(F)(F)F)ccn3)c2)cc1` [Example 93, 2-{1-[2-(4-methoxyphenyl)ethyl]-1H-imidazol-4-yl}-4-[5-(trifluoromethyl)-1H-1,2,3-triazol-4-yl]pyridine], the IC50 was not above 100 nM. `FC(F)(F)c1ccc(CCn2cnc(-c3cc(-c4nn[nH]c4C(F)(F)F)ccn3)c2)cc1` [Example 94, 4-[5-(trifluoromethyl)-1H-1,2,3-triazol-4-yl]-2-(1-{2-[4-(trifluoromethyl)phenyl]ethyl}-1H-imidazol-4-yl)pyridine] returned an IC50 of 100 to 1000 nM. With `CC(C)(C)c1ccc(CCn2cnc(-c3cc(-c4nn[nH]c4C(F)(F)F)ccn3)c2)cc1` [Example 96, 2-{1-[2-(4-tert-butylphenyl)ethyl]-1H-imidazol-4-yl}-4-[5-(trifluoromethyl)-1H-1,2,3-triazol-4-yl]pyridine] the figure was 100 to 1000 nM.

Take `Cn1cnc(-c2cc(-c3nn[nH]c3C(F)(F)F)ccn2)c1-c1ccc(F)cc1` [Example 97, 2-[5-(4-fluorophenyl)-1-methyl-1H-imidazol-4-yl]-4-[5-(trifluoromethyl)-1H-1,2,3-triazol-4-yl]pyridine]: the IC50 was not above 100 nM. The value for `FC(F)(F)c1[nH]nnc1-c1ccnc(-c2cn(CC3CCOc4ccccc43)cn2)c1` (stereo not drawn) [Example 98, 2-{1-[(3,4-dihydro-2H-1-benzopyran-4-yl)methyl]-1H-imidazol-4-yl}-4-[5-(trifluoromethyl)-1H-1,2,3-triazol-4-yl]pyridine] was not above 100 nM; that for `Fc1cccc2c1CCCC2Cn1cnc(-c2cc(-c3nn[nH]c3C(F)(F)F)ccn2)c1` (stereo not drawn) [Example 99, 2-{1-[(5-fluoro-1,2,3,4-tetrahydronaphthalen-1-yl)methyl]-1H-imidazol-4-yl}-4-[5-(trifluoromethyl)-1H-1,2,3-triazol-4-yl]pyridine] was 100 to 1000 nM; that for `Fc1ccc2c(c1)CCCC2Cn1cnc(-c2cc(-c3nn[nH]c3C(F)(F)F)ccn2)c1` (stereo not drawn) [Example 100, 2-{1-[(6-fluoro-1,2,3,4-tetrahydronaphthalen-1-yl)methyl]-1H-imidazol-4-yl}-4-[5-(trifluoromethyl)-1H-1,2,3-triazol-4-yl]pyridine] was 100 to 1000 nM. The value for `Fc1ccc2c(c1)C(Cn1cnc(-c3cc(-c4nn[nH]c4C(F)(F)F)ccn3)c1)CCC2` (stereo not drawn) [Example 101, 2-{1-[(7-fluoro-1,2,3,4-tetrahydronaphthalen-1-yl)methyl]-1H-imidazol-4-yl}-4-[5-(trifluoromethyl)-1H-1,2,3-triazol-4-yl]pyridine] was 100 to 1000 nM.

What is called IC50 is the concentration needed to halve the response being measured. A high value points to a need for much substance.

The values are drawn from EP3436445B1, “HISTONE DEMETHYLASE INHIBITORS” (Celgene Quanticel Research, Inc., priority 2016, dated 2017).
